Measured values: patent US20080139564A1, “SUBSTITUTED PHENYL PROPYL AMINES AS HISTAMINE H3 RECEPTOR AND SEROTONIN TRANSPORTER MODULATORS” (priority 2006, published 2008)

Assays:
human H3 receptor [1] = target: T1, human H3 receptor (Homo sapiens, UniProt Q9Y5N1); test: H3 receptor binding (N-[3H]-α-methylhistamine displacement, SK-N-MC cell membranes); settings: 0.8 nM N-[3H]-α-methylhistamine, 60 min at 25° C.
T1 construct: expressed in transfected cells
Protocol: Binding of compounds to the cloned human H3 receptor, stably expressed in SK-N-MC cells, was performed (Lovenberg, T. W. et al. J. Pharmacol. Exp. Ther. 2000, 293, 771-778). Briefly, cell pellets from SK-N-MC cells expressing the human H3 receptor were homogenized in 50 mM Tris-HCl/5 mM EDTA and re-centrifuged at 30,000 g for 30 min. Pellets were re-homogenized in 50 mM Tris/5 mM EDTA (pH 7.4). Membranes were incubated with 0.8 nM N—[^3H]-α-methylhistamine plus/minus test compounds for 60 min at 25° C. and harvested by rapid filtration over GF/C glass fiber filters (pretreated with 0.3% polyethylenimine) followed by four washes with ice-cold buffer. Nonspecific binding was defined in the presence of 10 μM histamine.

Rat SERT = target: T2, Rat SERT (Rattus norvegicus, UniProt P31652); test: Rat brain SERT binding ([3H]-Citalopram displacement, rat brain membranes); settings: 0.6 nM [3H]-Citalopram, 60 min at 25° C.
T2 construct: A rat brain without cerebellum (Zivic Laboratories, Inc.—Pittsburgh, Pa.) was homogenized; tissue Zivic Laboratories, Inc; host or cells: rat brain without cerebellum
Protocol: A rat brain without cerebellum (Zivic Laboratories, Inc.—Pittsburgh, Pa.) was homogenized in a 52.6 mM Tris pH 8/126.4 mM NaCl/5.26 mM KCl mixture and centrifuged at 1,000 rpm for 5 min. The supernatant was removed and re-centrifuged at 15,000 rpm for 30 min. Pellets were re-homogenized in a 52.6 mM Tris pH8/126.4 mM NaCl/5.26 mM KCl mixture. Membranes were incubated with 0.6 nM [^3H]-Citalopram plus/minus test compounds for 60 min at 25° C. and harvested by rapid filtration over GF/C glass fiber filters (pretreated with 0.3% polyethylenimine) followed by four washes with ice-cold buffer. Nonspecific binding was defined in the presence of 100 μM fluoxetine.

human SERT = target: T3, human SERT (Homo sapiens, UniProt P31645); test: Human SERT binding (3H-citalopram displacement, HEK293 membranes); settings: 3H-citalopram 3.1 nM, rt for 1 h
T3 construct: expressed in transfected cells; host or cells: HEK293
Protocol: Homogenized HEK293 (Human Embryonic Kidney) membranes expressing the human SERT were incubated with ^3H-citalopram (SERT) at rt for 1 h in 50 mM Tris, 120 mM NaCl, 5 mM KCl (pH 7.4). Nonspecific binding was determined in the presence of 10 μM fluoxetine for the SERT. The membranes were washed and the radioactivity was counted as above. Calculations for Ki at the SERT were based on a Kd value for ^3H-citalopram and a ligand concentration of 3.1 nM.

human H3 receptor [2] = target: T1, human H3 receptor; test: Cyclic AMP accumulation (β-galactosidase reporter in SK-N-MC cells); type: cell-based; settings: read-out: pA2 (converted)
Protocol: Sublines of SK-N-MC cells were created that expressed a reporter construct and the human H3 receptor. The reporter gene (β-galactosidase) is under the control of multiple cyclic AMP responsive elements. In 96-well plates, histamine was added directly to the cell media followed 5 min later by an addition of forskolin (5 μM final concentration). When appropriate, antagonists were added 10 min prior to agonist addition. After a 6-h incubation at 37° C., the media was aspirated and the cells washed with 200 μL of phosphate-buffered saline followed by a second aspiration. Cells were lysed with 25 μL 0.1× assay buffer (10 mM Na-phosphate, pH 8, 0.2 mM MgSO4, 0.01 mM MnCl2) and incubated at rt for 10 min. Cells were then incubated for 10 min with 100 μL of 1× assay buffer containing 0.5% Triton and 40 mM β-mercaptoethanol. Color was developed using 25 μL of 1 mg/mL substrate solution (chlorophenolred β-D galactopyranoside; Roche Molecular Biochemicals, Indianapolis, Ind.). Color was quantitated on a microplate reader at absorbance 570 nm. The pA2 values were calculated by Schild regression analysis of the pEC50 values.

T2 sequence (P31652 whole entry): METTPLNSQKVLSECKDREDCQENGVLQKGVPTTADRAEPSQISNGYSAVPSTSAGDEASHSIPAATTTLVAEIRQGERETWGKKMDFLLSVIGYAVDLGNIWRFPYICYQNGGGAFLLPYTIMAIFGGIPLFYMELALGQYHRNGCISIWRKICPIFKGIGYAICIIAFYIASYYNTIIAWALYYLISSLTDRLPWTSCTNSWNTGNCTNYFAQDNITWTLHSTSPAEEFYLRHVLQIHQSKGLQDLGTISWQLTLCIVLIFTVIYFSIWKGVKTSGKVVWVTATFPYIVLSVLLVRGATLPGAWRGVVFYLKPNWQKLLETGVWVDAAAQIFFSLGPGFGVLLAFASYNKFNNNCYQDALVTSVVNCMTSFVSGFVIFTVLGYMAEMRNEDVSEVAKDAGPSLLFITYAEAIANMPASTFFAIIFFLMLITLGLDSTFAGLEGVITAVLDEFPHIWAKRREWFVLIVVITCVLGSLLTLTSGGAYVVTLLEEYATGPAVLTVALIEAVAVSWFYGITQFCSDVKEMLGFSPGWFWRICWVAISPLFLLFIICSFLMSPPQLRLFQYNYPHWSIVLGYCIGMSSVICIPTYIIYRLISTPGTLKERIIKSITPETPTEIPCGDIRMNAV
T1 sequence (Q9Y5N1 whole entry): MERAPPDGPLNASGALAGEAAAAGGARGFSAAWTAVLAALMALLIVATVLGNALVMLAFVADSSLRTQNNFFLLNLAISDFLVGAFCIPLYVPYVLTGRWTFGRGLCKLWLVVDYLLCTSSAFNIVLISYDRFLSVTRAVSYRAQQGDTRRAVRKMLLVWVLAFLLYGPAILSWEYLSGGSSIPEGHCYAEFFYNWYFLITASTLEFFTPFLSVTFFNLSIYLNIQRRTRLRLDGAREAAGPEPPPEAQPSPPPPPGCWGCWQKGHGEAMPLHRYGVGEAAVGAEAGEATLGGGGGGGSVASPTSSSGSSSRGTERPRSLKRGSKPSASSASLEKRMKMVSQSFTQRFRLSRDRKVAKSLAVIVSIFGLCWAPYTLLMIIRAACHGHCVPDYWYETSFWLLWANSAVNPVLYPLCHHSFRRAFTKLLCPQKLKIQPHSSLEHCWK
T3 sequence (P31645 whole entry): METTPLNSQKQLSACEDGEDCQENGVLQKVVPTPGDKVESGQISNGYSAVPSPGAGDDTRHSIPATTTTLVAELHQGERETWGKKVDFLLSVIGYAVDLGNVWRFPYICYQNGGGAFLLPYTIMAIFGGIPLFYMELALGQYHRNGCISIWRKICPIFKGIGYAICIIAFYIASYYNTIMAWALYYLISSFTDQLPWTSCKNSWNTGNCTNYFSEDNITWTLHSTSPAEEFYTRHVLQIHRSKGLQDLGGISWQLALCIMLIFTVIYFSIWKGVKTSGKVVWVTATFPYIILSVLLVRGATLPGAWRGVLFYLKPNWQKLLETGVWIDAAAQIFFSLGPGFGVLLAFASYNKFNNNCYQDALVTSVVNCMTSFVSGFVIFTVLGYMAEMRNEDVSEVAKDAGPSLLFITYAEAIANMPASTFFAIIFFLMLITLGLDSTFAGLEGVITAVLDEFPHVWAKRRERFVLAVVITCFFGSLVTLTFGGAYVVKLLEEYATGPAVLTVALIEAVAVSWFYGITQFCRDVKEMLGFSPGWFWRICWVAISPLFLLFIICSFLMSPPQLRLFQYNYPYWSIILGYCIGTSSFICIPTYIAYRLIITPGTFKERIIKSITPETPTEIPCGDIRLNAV

Row | Ki (human H3 receptor [1]) [nM] | Ki (Rat SERT) [nM] | Ki (human SERT) [nM] | Kb (human H3 receptor [2]) [nM] | SMILES
1 | 0.6 | 1.5 | 16 | – | Cc1ccc(OC(CCN(C)C)c2ccc(OCCCN3CCCCC3)cc2)cc1 (centres unmarked) [Example 6, Dimethyl-{3-[4-(3-piperidin-1-yl-propoxy)-phenyl]-3-p-tolyloxy-propyl}-amine]
2 | 0.9 | 2 | 60 | – | COc1ccc(OC(CCN(C)C)c2ccc(OCCCN3CCCCC3)cc2)cc1 (centres unmarked) [Example 7, {3-(4-Methoxy-phenoxy)-3-[4-(3-piperidin-1-yl-propoxy)-phenyl]-propyl}-dimethyl-amine]
3 | 1 | 1.3 | 46 | – | CN(C)CCC(Oc1ccc(F)cc1)c1ccc(OCCCN2CCCCC2)cc1 (centres unmarked) [Example 10, {3-(4-Fluoro-phenoxy)-3-[4-(3-piperidin-1-yl-propoxy)-phenyl]-propyl}-dimethyl-amine]
4 | 1.7 | 5 | 7 | – | CN(C)CCC(Oc1ccc(Br)cc1)c1ccc(OCCCN2CCCCC2)cc1 (centres unmarked) [Example 11, {3-(4-Bromo-phenoxy)-3-[4-(3-piperidin-1-yl-propoxy)-phenyl]-propyl}-dimethyl-amine]
5 | 0.9 | 4 | 9 | – | CN(C)CCC(Oc1ccc([N+](=O)[O-])cc1)c1ccc(OCCCN2CCCCC2)cc1 (centres unmarked) [Example 12, Dimethyl-{3-(4-nitro-phenoxy)-3-[4-(3-piperidin-1-yl-propoxy)phenyl]-propyl}-amine]
6 | 0.9 | 7 | 10 | – | CN(C)CCC(Oc1ccc(Cl)cc1Cl)c1ccc(OCCCN2CCCCC2)cc1 (centres unmarked) [Example 16, {3-(2,4-Dichloro-phenoxy)-3-[4-(3-piperidin-1-yl-propoxy)-phenyl]-propyl}-dimethyl-amine]
7 | 0.9 | 8 | 21 | – | CN(C)CCC(Oc1ccccc1Cl)c1ccc(OCCCN2CCCCC2)cc1 (centres unmarked) [Example 17, {3-(2-Chloro-phenoxy)-3-[4-(3-piperidin-1-yl-propoxy)-phenyl]-propyl}-dimethyl-amine]
8 | 1 | 44 | – | 0.977 | CN(C)CCC(Oc1ccc2[nH]ccc2c1)c1ccc(OCCCN2CCCCC2)cc1 (centres unmarked) [Example 19, {3-(1H-Indol-5-yloxy)-3-[4-(3-piperidin-1-yl-propoxy)-phenyl]-propyl}-dimethyl-amine]
9 | 49 | 6 | 22 | – | CC(C)N1CCN(CCC#Cc2ccc(C(CCN(C)C)Oc3ccccc3)cc2)CC1 (centres unmarked) [Example 22, (3-{4-[4-(4-Isopropyl-piperazin-1-yl)-but-1-ynyl]-phenyl}-3-phenoxy-propyl)-dimethyl-amine]
10 | 19 | 13 | 37 | – | CN(C)CCC(Oc1ccccc1)c1ccc(C#CCCN2CCOCC2)cc1 (centres unmarked) [Example 23, Dimethyl-{3-[4-(4-morpholin-4-yl-but-1-ynyl)-phenyl]-3-phenoxy-propyl}-amine]
11 | 11 | 18 | 34 | – | CN(C)CCC(Oc1ccccc1)c1ccc(C#CCCN2CCSCC2)cc1 (centres unmarked) [Example 24, Dimethyl-{3-phenoxy-3-[4-(4-thiomorpholin-4-yl-but-1-ynyl)phenyl]-propyl}-amine]
12 | 2 | 16 | 154 | – | CN(C)CCC(Oc1ccccc1)c1cccc(C#CCCN2CCCCC2)c1 (centres unmarked) [Example 31, Dimethyl-{3-phenoxy-3-[3-(4-piperidin-1-yl-but-1-ynyl)-phenyl]-propyl}-amine]
13 | 23 | 3 | 5 | – | CN(C)CCC(Oc1ccc(C(F)(F)F)cc1)c1ccc(CCCCN2CCCCC2)cc1 (centres unmarked) [Example 33, Dimethyl-[3-[4-(4-piperidin-1-yl-butyl)-phenyl]-3-(4-trifluoromethylphenoxy)-propyl]-amine]
14 | 12 | 7 | 10 | – | CC(C)N1CCN(CCCCc2ccc(C(CCN(C)C)Oc3ccc(C(F)(F)F)cc3)cc2)CC1 (centres unmarked) [Example 34, [3-[4-[4-(4-Isopropyl-piperazin-1-yl)-butyl]-phenyl]-3-(4-trifluoromethyl-phenoxy)-propyl]-dimethyl-amine]
15 | 32 | 10 | 6 | – | CN(C)CCC(Oc1ccc(C(F)(F)F)cc1)c1ccc(CCCCN2CCOCC2)cc1 (centres unmarked) [Example 35, Dimethyl-[3-[4-(4-morpholin-4-yl-butyl)-phenyl]-3-(4-trifluoromethyl-phenoxy)-propyl]-amine]
16 | 0.7 | 65 | 1330 | – | CN(C)CCC(Oc1cccc(OCCCN2CCCCC2)c1)c1ccccc1 (centres unmarked) [Example 37, Dimethyl-{3-phenyl-3-[3-(3-piperidin-1-yl-propoxy)-phenoxy]-propyl}-amine]
17 | 2 | – | – | 0.933 | CC(C)N1CCN(C(=O)c2ccc(C(CCN(C)C)Oc3ccc(C(F)(F)F)cc3)cc2)CC1 (centres unmarked) [Example 39, {4-[3-Dimethylamino-1-(4-trifluoromethyl-phenoxy)-propyl]-phenyl}-(4-isopropyl-piperazin-1-yl)-methanone]
18 | 2 | 65 | – | 1.48 | CC(C)N1CCC(Oc2ccc(OC(CCN(C)C)c3ccc(C(F)(F)F)cc3)cc2)CC1 (centres unmarked) [Example 45, [3-[4-(1-Isopropyl-piperidin-4-yloxy)-phenoxy]-3-(4-trifluoromethylphenyl)-propyl]-dimethyl-amine]
19 | 3 | 53 | – | 1.48 | CN(C)CCC(Oc1ccc(C(F)(F)F)cc1)c1ccc(C(=O)N2CCN(C3CCCC3)CC2)cc1 (centres unmarked) [Example 50, (4-Cyclopentyl-piperazin-1-yl)-{4-[3-dimethylamino-1-(4-trifluoromethyl-phenoxy)-propyl]-phenyl}-methanone]
20 | 7 | 30 | – | 11.2 | CN(C)CCC(Oc1ccc(C(F)(F)F)cc1)c1ccc(CN2CCN(C3CCCC3)CC2)cc1 (centres unmarked) [Example 51, [3-[4-(4-Cyclopentyl-piperazin-1-ylmethyl)-phenyl]-3-(4-trifluoromethyl-phenoxy)-propyl]-dimethyl-amine]
21 | 2 | 33 | – | 1.2 | CCC(C)N1CCN(C(=O)c2ccc(C(CCN(C)C)Oc3ccc(C(F)(F)F)cc3)cc2)CC1 (centres unmarked) [Example 52, (4-sec-Butyl-piperazin-1-yl)-{4-[3-dimethylamino-1-(4-trifluoromethyl-phenoxy)-propyl]-phenyl}-methanone]
22 | 0.8 | 7 | 21 | – | NCCC(Oc1ccccc1)c1ccc(OCCCN2CCCCC2)cc1 (centres unmarked) [Example 68, 3-Phenoxy-3-[4-(3-piperidin-1-yl-propoxy)-phenyl]-propylamine]
23 | 0.9 | 5 | 25 | – | CNCCC(Oc1ccccc1)c1ccc(OCCCN2CCCCC2)cc1 (centres unmarked) [Example 72, Methyl-{3-phenoxy-3-[4-(3-piperidin-1-yl-propoxy)-phenyl]-propyl}-amine]
24 | 0.2 | 633 | 4000 | – | c1ccc(OC(CCN2CCCC2)c2ccc(OCCCN3CCCCC3)cc2)cc1 (centres unmarked) [Example 73, 1-{3-[4-(1-Phenoxy-3-pyrrolidin-1-yl-propyl)-phenoxy]-propyl}-piperidine]

Row | SMILES | Ki (human H3 receptor [1]) [nM] | Ki (Rat SERT) [nM] | Ki (human SERT) [nM] | Kb (human H3 receptor [2]) [nM]
25 | CN(C)CCC(Oc1ccc(Cl)cc1)c1ccc(OCCCN2CCCCC2)cc1 (centres unmarked) [Example 8, {3-(4-Chloro-phenoxy)-3-[4-(3-piperidin-1-yl-propoxy)-phenyl]-propyl}-dimethyl-amine] | 1.7 | 2 | 16 | –
